The values that follow come from patent US9206188B2, “Substituted pyrrolo[2,3-b]pyridines as ITK and JAK inhibitors” (Arrien Pharmaceuticals LLC, priority 2013, dated 2015).

In assay [1] the target is JAK3 (Homo sapiens (Human), UniProt P52333). Put plainly: JAK3 kinase assay (radiometric filter binding, 10 μM ATP). Type of assay: biochemical. How it is done: (§1) All additions were done on ice, followed by the addition of ATP mix. Wells were uniformly mixed using an Eppendorff plate shaker and incubated at 30° C. for 20 min, and stopped by the addition of 5 μL of 3% phosphoric acid. Volume was increased to 100 μL by adding 0.8% phosphoric acid which was then transferred to PC filter mats (Millipore), pre-equilibrated with 70% ethanol and water. Plates were washed thrice with 100 μL 0.8% phosphoric acid and dried for an hour at 60° C. 100 μL scintillation fluid was added into each well and reading taken in Perkin Elmer TOPCOUNT beta counter.
Chain of JAK3 (P52333 whole entry): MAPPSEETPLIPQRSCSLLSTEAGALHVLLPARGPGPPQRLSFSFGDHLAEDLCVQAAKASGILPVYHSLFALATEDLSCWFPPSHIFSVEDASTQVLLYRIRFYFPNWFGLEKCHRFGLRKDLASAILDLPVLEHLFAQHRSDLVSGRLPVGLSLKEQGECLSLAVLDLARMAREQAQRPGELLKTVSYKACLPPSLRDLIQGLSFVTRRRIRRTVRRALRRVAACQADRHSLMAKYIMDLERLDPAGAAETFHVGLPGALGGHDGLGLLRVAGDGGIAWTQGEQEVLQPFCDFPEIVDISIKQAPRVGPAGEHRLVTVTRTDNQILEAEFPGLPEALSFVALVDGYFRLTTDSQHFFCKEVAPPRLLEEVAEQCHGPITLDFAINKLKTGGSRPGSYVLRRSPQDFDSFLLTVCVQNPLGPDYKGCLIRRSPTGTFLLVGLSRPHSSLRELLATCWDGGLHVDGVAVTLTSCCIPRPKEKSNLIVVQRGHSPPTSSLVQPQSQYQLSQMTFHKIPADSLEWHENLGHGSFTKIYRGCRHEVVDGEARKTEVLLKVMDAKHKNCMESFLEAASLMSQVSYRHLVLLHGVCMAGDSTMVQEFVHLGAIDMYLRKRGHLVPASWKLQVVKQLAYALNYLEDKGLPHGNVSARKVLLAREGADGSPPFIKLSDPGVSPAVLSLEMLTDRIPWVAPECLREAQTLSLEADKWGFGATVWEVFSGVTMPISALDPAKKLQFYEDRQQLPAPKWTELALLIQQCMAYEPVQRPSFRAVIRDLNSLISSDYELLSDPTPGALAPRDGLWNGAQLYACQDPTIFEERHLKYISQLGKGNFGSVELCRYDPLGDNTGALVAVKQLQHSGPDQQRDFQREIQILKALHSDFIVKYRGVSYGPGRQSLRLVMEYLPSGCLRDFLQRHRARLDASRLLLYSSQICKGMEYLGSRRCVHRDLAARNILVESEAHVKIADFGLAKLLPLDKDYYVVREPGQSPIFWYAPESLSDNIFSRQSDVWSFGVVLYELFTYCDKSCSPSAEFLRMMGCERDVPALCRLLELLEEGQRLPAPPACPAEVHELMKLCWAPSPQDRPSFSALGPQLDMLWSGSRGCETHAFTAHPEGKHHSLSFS
(§2) The reactions were carried out at 10 μM ATP for ITK, JAK3 and other TEC and Janus family of kinase.

The target in assay [2] is ITK (Homo sapiens (Human), UniProt Q08881). Put plainly: ITK kinase assay (radiometric filter binding, 10 μM ATP). Type of assay: biochemical. On the procedure:
as §1, §2

Where [3] appears, read: 10-dose IC50 mode, 10 μM ATP, read-out: JAK3 kinase inhibition.
The mark [4] stands for this setting: 10-dose IC50 mode, 10 μM ATP, read-out: ITK kinase inhibition.
The mark [5] stands for this setting: read-out: biochemical IC50 against JAK3.
The mark [6] stands for this setting: read-out: biochemical IC50 against ITK.

Where two headings read alike, the source gives them in different places.

Chain of ITK (Q08881 whole entry): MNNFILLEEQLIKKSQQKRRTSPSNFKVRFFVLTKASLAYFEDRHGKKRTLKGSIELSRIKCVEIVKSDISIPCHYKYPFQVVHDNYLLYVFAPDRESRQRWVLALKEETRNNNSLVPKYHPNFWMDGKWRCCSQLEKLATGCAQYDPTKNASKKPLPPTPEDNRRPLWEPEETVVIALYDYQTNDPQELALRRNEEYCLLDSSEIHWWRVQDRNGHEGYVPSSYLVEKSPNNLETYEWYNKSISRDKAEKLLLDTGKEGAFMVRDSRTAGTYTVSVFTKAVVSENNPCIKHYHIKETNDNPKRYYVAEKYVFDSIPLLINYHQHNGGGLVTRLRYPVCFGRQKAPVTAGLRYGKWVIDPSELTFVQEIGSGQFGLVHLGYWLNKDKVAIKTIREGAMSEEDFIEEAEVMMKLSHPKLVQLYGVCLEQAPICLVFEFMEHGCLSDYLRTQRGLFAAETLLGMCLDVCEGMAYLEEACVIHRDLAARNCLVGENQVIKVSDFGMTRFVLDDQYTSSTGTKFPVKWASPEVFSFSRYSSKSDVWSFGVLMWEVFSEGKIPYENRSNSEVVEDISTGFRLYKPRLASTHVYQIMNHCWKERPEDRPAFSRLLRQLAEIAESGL

For the compound `C=CC(=O)Nc1cccc(-c2cnc3[nH]nc(C)c3c2)c1` [Example 1, N-(3-(3-methyl-1H-pyrazolo[3,4-b]pyridin-5-yl)phenyl)acrylamide], the IC50 in assay [1] (setting [3]) and in assay [2] (setting [4]) was greater than 1000 nM in each case.
For the compound `C=CC(=O)Nc1cccc(-c2cnc3[nH]cc(-c4cc5ccc(C)cc5[nH]4)c3n2)c1` [Example 2, N-(3-(7-(6-methyl-1H-indol-2-yl)-5H-pyrrolo[2,3-b]pyrazin-2-yl)phenyl)acrylamide], the IC50 in assay [1] (setting [3]) and in assay [2] (setting [4]) was greater than 100 nM throughout.
On to `C=CC(=O)Nc1cccc(-c2cnc3[nH]cc(-c4cc5ccccc5[nH]4)c3n2)c1` [Example 5, N-(3-(7-(1H-indol-2-yl)-5H-pyrrolo[2,3-b]pyrazin-2-yl)phenyl)acrylamide], for which the IC50 in assay [1] (setting [5]) and in assay [2] (setting [6]) was 100 to 1000 nM throughout.
For `C=CC(=O)Nc1cccc(-c2cnc3[nH]cc(C)c3c2)c1` [Example 8, N-(3-(3-methyl-1H-pyrrolo[2,3-b]pyridin-5-yl)phenyl)acrylamide], the IC50 in assay [1] (setting [5]) and in assay [2] (setting [6]) was 100 to 1000 nM throughout.
With `C=CC(=O)Nc1cc(-c2cnc3[nH]cc(C)c3c2)ccc1Cl` [Example 15, N-(2-chloro-5-(3-methyl-1H-pyrrolo[2,3-b]pyridin-5-yl)phenyl)acrylamide], the IC50 in assay [1] (setting [3]) and in assay [2] (setting [4]) was greater than 100 nM in each case.
As for `C#CC1(C(=O)Nc2cccc(-c3cnc4[nH]cc(Cl)c4c3)c2)CC1` [Example 16, N-(3-(3-chloro-1H-pyrrolo[2,3-b]pyridin-5-yl)phenyl)-1-ethynylcyclopropanecarboxamide], the IC50 was less than 100 nM in assay [1] (setting [3]), 100 to 1000 nM in assay [1] (setting [5]), greater than 1000 nM in assay [2] (setting [4]) and 100 to 1000 nM in assay [2] (setting [6]).
Take `C=CC(=O)Nc1ccccc1-c1cnc2[nH]cc(C)c2c1` [Example 17, N-(2-(3-methyl-1H-pyrrolo[2,3-b]pyridin-5-yl)phenyl)acrylamide]: the IC50 in assay [1] (setting [3]) and in assay [2] (setting [4]) was greater than 1000 nM in each case.
For `C=CC(=O)Nc1ccccc1-c1cnc2[nH]cc(Cl)c2c1` [Example 18, N-(2-(3-chloro-1H-pyrrolo[2,3-b]pyridin-5-yl)phenyl)acrylamide], the IC50 in assay [1] (setting [3]) and in assay [2] (setting [4]) was greater than 1000 nM throughout.
As to `CC#CC(=O)Nc1cccc(-c2cnc3[nH]cc(Cl)c3c2)c1` [Example 19, N-(3-(3-chloro-1H-pyrrolo[2,3-b]pyridin-5-yl)phenyl)but-2-ynamide], the IC50 in assay [1] (setting [3]) and in assay [2] (setting [4]) was less than 100 nM in each case.
For the compound `C#CC(=O)Nc1cccc(-c2cnc3[nH]cc(Cl)c3c2)c1` [Example 20, N-(3-(3-chloro-1H-pyrrolo[2,3-b]pyridin-5-yl)phenyl)propiolamide], the IC50 in assay [1] (setting [3]) and in assay [2] (setting [4]) was less than 100 nM each time.
For `CCC#CC(=O)Nc1cccc(-c2cnc3[nH]cc(Cl)c3c2)c1` [Example 21, N-(3-(3-chloro-1H-pyrrolo[2,3-b]pyridin-5-yl)phenyl)pent-2-ynamide], the IC50 in assay [1] (setting [3]) and in assay [2] (setting [4]) was less than 100 nM each time.
Regarding `O=C(CF)Nc1cccc(-c2cnc3[nH]cc(Cl)c3c2)c1` [Example 22, N-(3-(3-chloro-1H-pyrrolo[2,3-b]pyridin-5-yl)phenyl)-2-fluoroacetamide], the IC50 was less than 100 nM in assay [1] (setting [3]) and greater than 1000 nM in assay [2] (setting [4]).
`CC#CC(=O)Nc1cccc(-c2cnc3[nH]cc(C)c3c2)c1` [Example 23, N-(3-(3-methyl-1H-pyrrolo[2,3-b]pyridin-5-yl)phenyl)but-2-ynamide]: the IC50 in assay [1] (setting [3]) and in assay [2] (setting [4]) was less than 100 nM in each case.
In the case of `CCC#CC(=O)Nc1cccc(-c2cnc3[nH]cc(C)c3c2)c1` [Example 24, N-(3-(3-methyl-1H-pyrrolo[2,3-b]pyridin-5-yl)phenyl)pent-2-ynamide], the IC50 in assay [1] (setting [3]) is less than 100 nM; in assay [2] (setting [4]), greater than 100 nM.
The corresponding values for `Cc1c[nH]c2ncc(-c3cccc(NC(=O)CF)c3)cc12` [Example 25, 2-fluoro-N-(3-(3-methyl-1H-pyrrolo[2,3-b]pyridin-5-yl)phenyl)acetamide] are less than 100 nM and greater than 1000 nM.
Consider `C=CC(=O)Nc1cccc(-c2cnc3[nH]cc(-c4cccc(F)c4OC)c3c2)c1` [Example 26, N-(3-(3-(3-fluoro-2-methoxyphenyl)-1H-pyrrolo[2,3-b]pyridin-5-yl)phenyl)acrylamide], for which the IC50 in assay [1] (setting [3]) and in assay [2] (setting [4]) was less than 100 nM throughout.
For the compound `C=CC(=O)Nc1cccc(-c2cnc3[nH]cc(-c4cccc(S(=O)(=O)N(C)C(C)(C)C)c4)c3c2)c1` [Example 27, N-(3-(3-(3-(N-(tert-butyl)-N-methylsulfamoyl)phenyl)-1H-pyrrolo[2,3-b]pyridin-5-yl)phenyl)acrylamide], the IC50 in assay [1] (setting [3]) and in assay [2] (setting [4]) was less than 100 nM throughout.
In the case of `C=CC(=O)Nc1cccc(-c2cnc3[nH]cc(-c4cccc(C(=O)OCC)c4)c3c2)c1` [Example 29, ethyl 3-(5-(3-acrylamidophenyl)-1H-pyrrolo[2,3-b]pyridin-3-yl)benzoate], the IC50 in assay [1] (setting [3]) and in assay [2] (setting [4]) was less than 100 nM throughout.
For `C=CC(=O)Nc1cccc(-c2cnc3[nH]cc(-c4cc(F)cc(F)c4OC)c3c2)c1` [Example 30, N-(3-(3-(3,5-difluoro-2-methoxyphenyl)-1H-pyrrolo[2,3-b]pyridin-5-yl)phenyl)acrylamide], the IC50 in assay [1] (setting [3]) and in assay [2] (setting [4]) was less than 100 nM each time.
For `CCC#CC(=O)Nc1cccc(-c2cnc3[nH]cc(-c4cccc(S(=O)(=O)N(C)C(C)(C)C)c4)c3c2)c1` [Example 32, N-(3-(3-(3-(N-(tert-butyl)-N-methylsulfamoyl)phenyl)-1H-pyrrolo[2,3-b]pyridin-5-yl)phenyl)pent-2-ynamide], the IC50 in assay [1] (setting [3]) was less than 100 nM; in assay [2] (setting [4]), greater than 100 nM.
Take `C=CC(=O)Nc1cccc(-c2cnc3[nH]cc(-c4cccc(S(=O)(=O)N(C)C(C)(C)C)c4)c3n2)c1` [Example 33, N-(3-(7-(3-(N-(tert-butyl)-N-methylsulfamoyl)phenyl)-5H-pyrrolo[2,3-b]pyrazin-2-yl)phenyl)acrylamide]: the IC50 in assay [1] (setting [3]) and in assay [2] (setting [4]) was less than 100 nM in each case.
`C=CC(=O)Nc1cccc(-c2cnc3[nH]cc(-c4cccc(S(=O)(=O)N(C)C)c4)c3c2)c1` [Example 34, N-(3-(3-(3-(N,N-dimethylsulfamoyl)phenyl)-1H-pyrrolo[2,3-b]pyridin-5-yl)phenyl)acrylamide]: the IC50 in assay [1] (setting [3]) and in assay [2] (setting [4]) was greater than 100 nM in each case.
Take `C=CC(=O)Nc1cccc(-c2cnc3[nH]cc(-c4cccc(S(C)(=O)=O)c4)c3c2)c1` [Example 35, N-(3-(3-(3-(methylsulfonyl)phenyl)-1H-pyrrolo[2,3-b]pyridin-5-yl)phenyl)acrylamide]: the IC50 in assay [1] (setting [3]) and in assay [2] (setting [4]) was greater than 100 nM each time.
As to `C=CC(=O)Nc1cccc(-c2cnc3[nH]cc(-c4cccc(S(=O)(=O)CC)c4)c3c2)c1` [Example 36, N-(3-(3-(3-(ethylsulfonyl)phenyl)-1H-pyrrolo[2,3-b]pyridin-5-yl)phenyl)acrylamide], the IC50 in assay [1] (setting [3]) and in assay [2] (setting [4]) was greater than 100 nM in each case.
On to `CCC#CC(=O)Nc1cccc(-c2cnc3[nH]cc(-c4cc(F)cc(F)c4OC)c3c2)c1` [Example 37, N-(3-(3-(3,5-difluoro-2-methoxyphenyl)-1H-pyrrolo[2,3-b]pyridin-5-yl)phenyl)pent-2-ynamide], for which the IC50 in assay [1] (setting [3]) and in assay [2] (setting [4]) was greater than 100 nM each time.
With `C=CC(=O)Nc1cc(-c2cnc3[nH]cc(-c4cc(F)cc(F)c4OC)c3c2)ccc1F` [Example 38, N-(5-(3-(3,5-difluoro-2-methoxyphenyl)-1H-pyrrolo[2,3-b]pyridin-5-yl)-2-fluorophenyl)acrylamide], the IC50 in assay [1] (setting [3]) and in assay [2] (setting [4]) was greater than 100 nM in each case.
As for `C=CC(=O)Nc1cc(-c2cnc3[nH]cc(-c4cc(F)cc(F)c4OC)c3c2)c(F)cc1F` [Example 39, N-(5-(3-(3,5-difluoro-2-methoxyphenyl)-1H-pyrrolo[2,3-b]pyridin-5-yl)-2,4-difluorophenyl)acrylamide], the IC50 in assay [1] (setting [3]) and in assay [2] (setting [4]) was greater than 100 nM each time.
In the case of `C=CC(=O)Nc1ccc(F)c(-c2cnc3[nH]cc(-c4cc(F)cc(F)c4OC)c3c2)c1` [Example 40, N-(3-(3-(3,5-difluoro-2-methoxyphenyl)-1H-pyrrolo[2,3-b]pyridin-5-yl)-4-fluorophenyl)acrylamide], the IC50 in assay [1] (setting [3]) and in assay [2] (setting [4]) was greater than 100 nM throughout.
On to `C=CC(=O)Nc1cc(-c2cnc3[nH]cc(-c4cc(F)cc(F)c4OC)c3c2)ccc1Cl` [Example 41, N-(2-chloro-5-(3-(3,5-difluoro-2-methoxyphenyl)-1H-pyrrolo[2,3-b]pyridin-5-yl)phenyl)acrylamide], for which the IC50 in assay [1] (setting [3]) and in assay [2] (setting [4]) was greater than 100 nM throughout.
With `CN(C)/C=C/C(=O)Nc1cccc(-c2cnc3[nH]cc(Cl)c3c2)c1` [Example 44, (E)-N-(3-(3-chloro-1H-pyrrolo[2,3-b]pyridin-5-yl)phenyl)-3-(dimethylamino)acrylamide], the IC50 in assay [2] (setting [4]) was greater than 1000 nM.
With `C=CC(=O)Nc1cc(-c2cnc3[nH]cc(Cl)c3c2)cc(F)c1F` [Example 64, N-(5-(3-chloro-1H-pyrrolo[2,3-b]pyridin-5-yl)-2,3-difluorophenyl)acrylamide], the IC50 in assay [1] (setting [3]) was greater than 100 nM.
As to `CC#CC(=O)Nc1cc(-c2cnc3[nH]cc(Cl)c3c2)ccc1F` [Example 88, N-(5-(3-chloro-1H-pyrrolo[2,3-b]pyridin-5-yl)-2-fluorophenyl)but-2-ynamide], the IC50 in assay [1] (setting [3]) is less than 100 nM.
Same read-out and setting: the value for “(E)-N-(2-chloro-5-(3-methyl-1H- pyrrolo[2,3-b]pyridin-5- yl)phenyl)pent-1-enamide [Example 14]” was greater than 100 nM.
